According to patent publication US8178548B2, “Anti-infective agents and uses thereof” (priority 2007, dated 2012):
Like-named read-outs stand apart in the source and are kept apart here.

What was measured:
[1] = system: genotype 1a-H77 subgenomic replicon cell line; experiment: HCV Polymerase Replicon Assay, genotype 1a-H77 (luciferase reporter); type: cell-based; settings: Hepatitis C virus, 72 h, read-out: EC50 1a
[2] = target: T1, HCV polymerase 1B (Δ21 NS5B, HCV Strain 1B BK) (Hepatitis C virus genotype 1b, UniProt P26663); experiment: biochemical
T1 construct: 20 to 50 nM Δ21 NS5B
T1 sequence (P26663 2420-2989, stated change not applied): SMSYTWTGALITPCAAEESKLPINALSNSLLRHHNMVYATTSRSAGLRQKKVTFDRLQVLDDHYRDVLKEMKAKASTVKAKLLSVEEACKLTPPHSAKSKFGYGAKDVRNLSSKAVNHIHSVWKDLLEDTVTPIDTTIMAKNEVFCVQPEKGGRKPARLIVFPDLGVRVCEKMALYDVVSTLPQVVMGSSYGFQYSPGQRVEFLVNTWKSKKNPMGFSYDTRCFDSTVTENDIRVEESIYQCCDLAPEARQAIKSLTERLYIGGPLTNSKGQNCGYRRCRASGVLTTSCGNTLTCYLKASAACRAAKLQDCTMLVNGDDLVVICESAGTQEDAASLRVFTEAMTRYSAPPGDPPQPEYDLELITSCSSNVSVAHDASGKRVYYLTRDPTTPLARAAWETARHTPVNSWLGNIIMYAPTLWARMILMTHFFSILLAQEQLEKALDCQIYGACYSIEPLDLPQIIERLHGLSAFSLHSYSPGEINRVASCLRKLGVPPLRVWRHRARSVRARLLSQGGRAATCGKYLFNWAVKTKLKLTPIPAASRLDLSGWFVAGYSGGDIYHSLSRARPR
Experimental: (§1) Either two-fold serial dilutions (fractional inhibition assay) or a narrower range of dilutions spanning the IC50 of the inhibitor (tight binding assay) of the inhibitors were incubated with 20 mM Tris-Cl pH 7.4, 2 mM MnCl2, 1 mM dithiothreitol, 1 mM ethylene diamine tetraacetic acid (EDTA), 60 to 125 μM GTP and 20 to 50 nM Δ21 NS5B (HCV Strain 1B (BK, Genbank accession number M58335, or H77, Genbank accession number AF011751)) for 15 min at room temperature. The reaction was initiated by the addition of 20 μM CTP, 20 μM ATP, 1 μM ^3H-UTP (10 mCi/umol), 5 nM template RNA and 0.1 U/μl RNase inhibitor (RNasin, Promega), and allowed to proceed for 2 to 4 h at room temperature. Reaction volume was 50 μl. The reaction was terminated by the addition of 1 volume of 4 mM spermine in 10 mM Tris-Cl pH 8.0, 1 mM EDTA. After incubation for at least 15 min at room temperature, the precipitated RNA was captured by filtering through a GF/B filter (Millipore) in a 96 well format. The filter plate was washed three times with 200 μl each of 2 mM spermine, 10 mM Tris-Cl pH 8.0, 1 mM EDTA, and 2 times with ethanol. After air-drying, 30 μl of Microscint 20 scintillation cocktail (Packard) was added to each well, and the retained cpm were determined by scintillation counting. […] Retained cpm were plotted vs. inhibitor concentration and fit to equation 1 using non-linear regression (ref. 1) to obtain the IC50 values: Retained cpm=A[sqrt{(IC50+It−Et)^2+4*IC50*Et}−(IC50+It−Et)]
(§2) Ref. Morrison, J. F. and S. R. Stone. 1985. Approaches to the study and analysis of the inhibition of enzymes by slow- and tight-binding inhibitors. Comments Mol. Cell. Biophys. 2: 347-368.
(§3) The sequence of the template RNA used was: 5′-[…] […] […] […] […] […] […] […] […] […] […] […] […] […] […] […] […]-3′ (SEQ ID NO:1).

[3] = target: T2, HCV polymerase 1A (Δ21 NS5B, H77) (Hepatitis C virus genotype 1a, UniProt P27958); experiment: biochemical
T2 construct: 20 to 50 nM Δ21 NS5B
T2 sequence (P27958 2421-2990, stated change not applied): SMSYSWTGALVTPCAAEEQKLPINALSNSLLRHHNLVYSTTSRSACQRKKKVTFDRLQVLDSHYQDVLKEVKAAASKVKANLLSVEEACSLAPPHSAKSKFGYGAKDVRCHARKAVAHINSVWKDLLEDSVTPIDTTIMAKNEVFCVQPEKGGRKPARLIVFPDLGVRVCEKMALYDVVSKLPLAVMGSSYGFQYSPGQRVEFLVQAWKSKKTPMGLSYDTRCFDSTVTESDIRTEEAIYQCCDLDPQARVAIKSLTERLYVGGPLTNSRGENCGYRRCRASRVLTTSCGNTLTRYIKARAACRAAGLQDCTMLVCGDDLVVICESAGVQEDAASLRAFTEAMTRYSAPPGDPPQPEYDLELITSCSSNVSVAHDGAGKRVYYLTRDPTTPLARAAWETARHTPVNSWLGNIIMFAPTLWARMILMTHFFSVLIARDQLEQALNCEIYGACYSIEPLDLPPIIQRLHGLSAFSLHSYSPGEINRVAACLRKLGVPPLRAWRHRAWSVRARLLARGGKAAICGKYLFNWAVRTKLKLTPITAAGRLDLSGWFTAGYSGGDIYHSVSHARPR
Experimental: as §1, §2, §3

[4] = system: genotype 1b-Con1 subgenomic replicon cell line; experiment: HCV Polymerase Replicon Assay, genotype 1b-Con1 (luciferase reporter); type: cell-based; settings: Hepatitis C virus, 72 h, read-out: EC50 1b

Question: `COc1c(C=C(F)c2ccc(NS(C)(=O)=O)cc2)cc(N2CCC(=O)NC2=O)cc1C(C)(C)C` (racemic) [IA-L1-1.21, N-(4-(2-(3-tert-butyl-5-(2,4-dioxotetrahydropyrimidin-1(2H)-yl)-2-methoxyphenyl) 1-fluorovinyl)phenyl)methanesulfonamide] was tested. Which EC50 [1] did it give?
Answer: < 10 nM

Question: And the IC50 [2]?
Answer: 10 to 100 nM

Question: What about the IC50 [3] of the same molecule?
Answer: 10 to 100 nM

Question: And the EC50 [4]?
Answer: < 10 nM

Question: Which results are given for `COc1c(/C=C(\Cl)c2ccc(NS(C)(=O)=O)cc2)cc(N2CCC(=O)NC2=O)cc1C(C)(C)C` [IA-L1-1.3, (Z)-N-(4-(2-(3-tert-butyl-5-(2,4-dioxotetrahydropyrimidin-1(2H)-yl)-2-methoxyphenyl)-1-chlorovinyl)phenyl)methanesulfonamide]?
Answer: EC50 [1]: 10 to 100 nM; IC50 [2]: < 10 nM; IC50 [3]: < 10 nM; EC50 [4]: < 10 nM

Question: What does the source list for `COc1c(/C=C(\F)c2ccc(NS(C)(=O)=O)cc2)cc(N2CCC(=O)NC2=O)cc1C(C)(C)C` [IA-L1-1.4, (Z)-N-(4-(2-(3-tert-butyl-5-(2,4-dioxotetrahydropyrimidin-1(2H)-yl)-2-methoxyphenyl)-1-fluorovinyl)phenyl)methanesulfonamide]?
Answer: EC50 [1]: < 10 nM; IC50 [2]: < 10 nM; IC50 [3]: < 10 nM; EC50 [4]: < 10 nM

Question: What does the source list for `COc1c(/C=C(/F)c2ccc(NS(C)(=O)=O)cc2)cc(N2CCC(=O)NC2=O)cc1C(C)(C)C` [IA-L1-1.5, (E)-N-(4-(2-(3-tert-butyl-5-(2,4-dioxotetrahydropyrimidin-1(2H)-yl)-2-methoxyphenyl)-1-fluorovinyl)phenyl)methanesulfonamide]?
Answer: EC50 [1]: 10 to 100 nM; IC50 [2]: 10 to 100 nM; IC50 [3]: < 10 nM; EC50 [4]: < 10 nM

Question: With `COc1c(/C=C(\C)c2ccc(NS(C)(=O)=O)cc2)cc(N2CCC(=O)NC2=O)cc1C(C)(C)C` [IA-L1-1.6, (E)-N-(4-(1-(3-tert-butyl-5-(2,4-dioxotetrahydropyrimidin-1(2H)-yl)-2-methoxyphenyl)prop-1-en-2-yl)phenyl)methanesulfonamide] as the molecule, how does the EC50 [1] read?
Answer: 10 to 100 nM

Question: What about the IC50 [2] of the same molecule?
Answer: 10 to 100 nM

Question: What about the IC50 [3] of the same molecule?
Answer: < 10 nM

Question: What about the EC50 [4] of the same molecule?
Answer: 10 to 100 nM

Question: Which EC50 [1] does the source give for `COc1c(/C=C/c2ccc(NS(C)(=O)=O)cc2)cc(N2CCC(=O)NC2=O)cc1C(C)(C)C` [IA-L1-1.9, (E)-N-(4-(3-tert-butyl-5-(2,4-dioxotetrahydropyrimidin-1(2H)-yl)-2-methoxystyryl)phenyl)methanesulfonamide] here?
Answer: 10 to 100 nM

Question: What about the IC50 [2] of the same molecule?
Answer: 10 to 100 nM

Question: What about the IC50 [3] of the same molecule?
Answer: < 10 nM

Question: What about the EC50 [4] of the same molecule?
Answer: < 10 nM

Question: What does the source list for `COc1c(/C=C/c2ccc(N(C(C)=O)S(C)(=O)=O)cc2)cc(N2CCC(=O)NC2=O)cc1C(C)(C)C` [IA-L1-1.11, (E)-N-(4-(3-tert-butyl-5-(2,4-dioxotetrahydropyrimidin-1(2H)-yl)-2-methoxystyryl)phenyl)-N-(methylsulfonyl)acetamide]?
Answer: EC50 [1]: < 10 nM; IC50 [2]: 10 to 100 nM; IC50 [3]: 10 to 100 nM; EC50 [4]: < 10 nM

Question: For `COc1c(/C=C/c2ccc(F)cc2)cc(N2CCC(=O)NC2=O)cc1C(C)(C)C` [IA-L1-1.12, (E)-1-(3-tert-butyl-5-(4-fluorostyryl)-4-methoxyphenyl) dihydropyrimidine-2,4(1H,3H)-dione], which EC50 [1] is on record?
Answer: 100 to 1000 nM

Question: And the IC50 [2]?
Answer: 100 to 1000 nM

Question: And the IC50 [3]?
Answer: 100 to 1000 nM

Question: What about the EC50 [4] of the same molecule?
Answer: 100 to 1000 nM

Question: How did the EC50 [1] turn out when `COc1c(/C=C/c2ccc(N)cc2)cc(N2CCC(=O)NC2=O)cc1C(C)(C)C` [IA-L1-1.13, (E)-1-(3-(4-aminostyryl)-5-tert-butyl-4-methoxyphenyl)dihydropyrimidine-2,4(1H,3H)-dione] was run?
Answer: > 1000 nM

Question: And the IC50 [2]?
Answer: 100 to 1000 nM

Question: What about the IC50 [3] of the same molecule?
Answer: 100 to 1000 nM

Question: What about the EC50 [4] of the same molecule?
Answer: 100 to 1000 nM

Question: For `COc1ccc(/C=C/c2cc(N3CCC(=O)NC3=O)cc(C(C)(C)C)c2OC)cc1` [IA-L1-1.14, (E)-1-(3-tert-butyl-4-methoxy-5-(4-methoxystyryl)phenyl)dihydropyrimidine-2,4(1H,3H)-dione], which EC50 [1] is on record?
Answer: > 1000 nM

Question: And the IC50 [2]?
Answer: > 1000 nM

Question: And the IC50 [3]?
Answer: > 1000 nM

Question: What about the EC50 [4] of the same molecule?
Answer: > 1000 nM

Question: What does the source list for `CC(C)(C)c1cc(/C=C/c2ccc(NS(C)(=O)=O)cc2)cc(N2CCC(=O)NC2=O)c1` [IA-L1-1.16, (E)-N-(4-(3-tert-butyl-5-(2,4-dioxotetrahydropyrimidin-1(2H)-yl)styryl)phenyl)methanesulfonamide]?
Answer: EC50 [1]: 10 to 100 nM; IC50 [2]: < 10 nM; IC50 [3]: < 10 nM; EC50 [4]: 10 to 100 nM

Question: With `CO/C(=C\c1cc(N2CCC(=O)NC2=O)cc(C(C)(C)C)c1OC)c1ccc(NS(C)(=O)=O)cc1` [IA-L1-1.17, (Z)-N-(4-(2-(3-tert-butyl-5-(2,4-dioxotetrahydropyrimidin-1(2H)-yl)-2-methoxyphenyl)-1-methoxyvinyl)phenyl)methanesulfonamide] as the molecule, how does the EC50 [1] read?
Answer: 10 to 100 nM

Question: What about the IC50 [2] of the same molecule?
Answer: 10 to 100 nM

Question: And the IC50 [3]?
Answer: 10 to 100 nM

Question: What about the EC50 [4] of the same molecule?
Answer: 10 to 100 nM

Question: Which results are given for `COc1c(/C=C/c2ccccc2)cc(N2CCC(=O)NC2=O)cc1C(C)(C)C` [IA-L1-1.18, (E)-1-(3-tert-butyl-4-methoxy-5-styrylphenyl)dihydro-pyrimidine-2,4(1H,3H)-dione]?
Answer: EC50 [1]: 100 to 1000 nM; IC50 [2]: 100 to 1000 nM; IC50 [3]: 100 to 1000 nM; EC50 [4]: 100 to 1000 nM

Question: Which results are given for `COc1c(/C=C\c2ccc(NS(C)(=O)=O)cc2)cc(N2CCC(=O)NC2=O)cc1C(C)(C)C` [IA-L1-1.20, (Z)-N-(4-(3-tert-butyl-5-(2,4-dioxotetrahydropyrimidin-1(2H)-yl)-2-methoxystyryl)phenyl)methanesulfonamide]?
Answer: EC50 [1]: 10 to 100 nM; EC50 [4]: 10 to 100 nM

Question: Which results are given for `COc1c(/C=C/c2ccc([N+](=O)[O-])cc2)cc(N2CCC(=O)NC2=O)cc1C(C)(C)C` [IA-L1-1.22, (E)-1-(3-tert-butyl-4-methoxy-5-(4-nitrostyryl)phenyl)dihydropyrimidine-2,4(1H,3H)-dione]?
Answer: EC50 [1]: > 1000 nM; IC50 [2]: 100 to 1000 nM; IC50 [3]: 100 to 1000 nM; EC50 [4]: 100 to 1000 nM

Question: How did the EC50 [1] turn out when `COc1c(/C=C(\Cl)c2ccc([N+](=O)[O-])cc2)cc(N2CCC(=O)NC2=O)cc1C(C)(C)C` [IA-L1-1.23, 1-{3-tert-butyl-5-[(Z)-2-chloro-2-(4-nitro-phenyl)-vinyl]-4-methoxy-phenyl}-dihydropyrimidine-2,4-dione] was run?
Answer: > 1000 nM

Question: And the IC50 [2]?
Answer: 100 to 1000 nM

Question: And the IC50 [3]?
Answer: 100 to 1000 nM

Question: What about the EC50 [4] of the same molecule?
Answer: > 1000 nM

Question: Which results are given for `CC(C)(C)c1cc(/C=C/c2ccc([N+](=O)[O-])cc2)cc(N2CCC(=O)NC2=O)c1` [IA-L1-1.25, 1-{3-tert-Butyl-5-[(E)-2-(4-nitro-phenyl)-vinyl]-phenyl}-dihydro-pyrimidine-2,4-dione]?
Answer: IC50 [2]: > 1000 nM; IC50 [3]: > 1000 nM

Question: With `COc1c(/C=C/c2ccc(NS(C)(=O)=O)cc2)cc(-n2cc(F)c(=O)[nH]c2=O)cc1C(C)(C)C` [IB-L1-1.2, (E)-N-(4-(3-tert-butyl-5-(5-fluoro-2,4-dioxo-3,4-dihydropyrimidin-1(2H)-yl)-2-methoxystyryl)phenyl)methanesulfonamide] as the molecule, how does the IC50 [2] read?
Answer: 10 to 100 nM

Question: What about the IC50 [3] of the same molecule?
Answer: 10 to 100 nM

Question: What about the EC50 ([4]; replicon 1b-Con1, luciferase, three days) of the same molecule?
Answer: 10 to 100 nM

Question: What does the source list for `COc1c(/C=C/c2ccc(NS(C)(=O)=O)cc2)cc(-n2ccc(=O)[nH]c2=O)cc1-c1cccnc1` [IB-L1-1.53, (E)-N-(4-(5-(2,4-dioxo-3,4-dihydropyrimidin-1(2H)-yl)-2-methoxy-3-(pyridin-3-yl)styryl)phenyl)methanesulfonamide]?
Answer: IC50 [2]: > 1000 nM; IC50 [3]: > 1000 nM

Question: Which results are given for `COc1c(/C=C/c2ccc(NS(C)(=O)=O)cc2)cc(-n2ccc(=O)[nH]c2=O)cc1-c1ccncc1` [IB-L1-1.55, (E)-N-(4-(5-(2,4-dioxo-3,4-dihydropyrimidin-1(2H)-yl)-2-methoxy-3-(pyridin-4-yl)styryl)phenyl)methanesulfonamide]?
Answer: IC50 [2]: > 1000 nM; IC50 [3]: > 1000 nM
